1 compound from patent US11311522B1 (Cavion, Inc., priority 2018, dated 2022) can be followed below.

The structures appear in SMILES notation.

This data set deals with patients with schizophrenia. The experiment in a line: PN004: safety. In kind it is in vivo, human.
The mark [1] stands for this setting: Study PN004, subjects with schizophrenia, BID Days 1 to 28, CX-8998 N = 86, Olanzapine N = 47.

Excerpt: The primary efficacy endpoint was the mean change from baseline in the Positive and Negative Syndrome Scale (PANSS) total score at Week 4; secondary efficacy endpoints included responder rates on the PANSS total score at Week 4 and the change from baseline in the Clinical Global Impressions—Severity of Illness Scale at Week 4. Safety was monitored by adverse events, laboratory evaluations, ECGs, Holter monitoring, vital signs, the Simpson-Angus Scale, the Barnes Akathisia Rating Scale, the Abnormal Involuntary Movement Scale, and the Columbia Suicide-Severity Rating scale (C-SSRS).

As for `CC(C)c1ccc(CC(=O)N[C@H](C)c2ccc(OCC(F)(F)F)cn2)cc1` [CX-8998], under setting [1], the Anxiety is listed as 2 (2.3), the “At least 1 adverse event” value is listed as 41 (47.7), the Chronic pharyngitis is 2 (2.3) and the Dizziness is recorded as 2 (2.3). Also, under setting [1], the Headache is listed as 2 (2.3), the Insomnia is 13 (15.1), the Rhinopharyngitis is reported as 2 (2.3) and the Schizophrenia is 3 (3.5). In addition, under setting [1], the Sinus tachycardia is 2 (2.3) and the Somnolence is given as 2 (2.3). Besides, where the note is “in vivo”, the “Subjects who discontinued treatment because of adverse events” value is on record as 10.5%; the “Subjects with dizziness and vertigo” value stood at 4.7%.
